Test results as given in article PMC11807725, “Screening and Antioxidant Activities Evaluation of Peptides From Abalone (Haliotis discus hannai Ino)” (Food Science & Nutrition, 2025).
Peptide text beside a SMILES is read from it.

Assays:
Assay type in all cases: cell-based, human
HUVECs [1] = test: Cytotoxicity testing of peptides in HUVECs (CCK-8); conditions: for toxicity to HUVECs (in words): concentration range 3.9–1000 μg/mL; for toxicity to HUVECs (in words) / effect on HUVEC growth (in words) / cytotoxicity to HUVECs (in words): 24 h, CCK-8; for effect on HUVEC growth (in words): within 3.9–1000 μg/mL; for effect on HUVEC viability (in words): vs control p < 0.01
Procedure: Peptide cytotoxicity in HUVECs was assessed using the CCK‐8 assay to determine cell viability (Suo et al. [2022]). HUVECs were digested with 0.25% trypsin, resuspended in RPMI 1640 complete medium containing 10% FBS at a density of 5 × 10^4 cells/mL, and seeded into 96‐well plates at 100 μL/well. Cells were incubated in a CO2 incubator (37°C, 5% CO2) for 12 h.
Control and experimental groups were established with six replicates each. After cell adhesion, 10 μL of peptide solution was added to the experimental groups at final concentrations of 3.9, 7.8, 15.6, 31.25, 62.5, 125, 250, 500, and 1000 μg/mL, whereas the control group received an equivalent volume of complete medium. After 24 h of incubation in the CO2 incubator, 10 μL of CCK‐8 solution was added to each well, and cells were incubated for 1 h. Optical density (OD) was measured at 450 nm using an Infinite M1000 Pro microplate reader (Tecan, Switzerland). Cell viability was calculated using the following formula: Cell Viability%=AS−AO/AC−AO×100% where A C represents the OD of the control group, A S indicates the OD of the experimental group, and A O is the OD of the blank wells.

HUVECs [2] = test: Establishment of the AAPH-induced HUVEC oxidative damage model (CCK-8 viability); conditions: 24 h; for cell survival rate: CCK-8
Procedure: The oxidative damage model was established using the method described by Li et al. ([2023]). HUVECs were seeded into 96‐well plates at a density of 5 × 10^4 cells/mL at 100 μL/well and incubated in a CO2 incubator (37°C, 5% CO2) for 12 h.

HUVECs damaged by AAPH [3] = conditions: at different concentrations, 6 mmol/L AAPH model, p > 0.05
Procedure: The experiment included control, model, and experimental groups. HUVECs were seeded into 96‐well plates at a density of 5 × 10^4 cells/mL at 100 μL per well, with six replicates per group. After cell adhesion, the model and experimental groups were treated with 10 μL of AAPH solution to a final concentration of 6 mmol/L, whereas the control group received an equivalent volume of medium. After 24 h, the experimental groups were treated with 10 μL of peptide solutions to final concentrations of 3.9, 7.8, 15.6, 31.25, 62.5, 125, 250, 500, and 1000 μg/mL. The control and model groups received an equivalent volume of medium.

HUVECs damaged by AAPH [4] = test: CAT activity in AAPH-damaged HUVECs; conditions: 250, 500, and 1000 μg/mL, 24 h after 6 mmol/L AAPH 24 h; p < 0.05; three replicates
Procedure: (§1) The model and experimental groups were established, and HUVECs were seeded into 6-well plates at a density of 5 × 10^4 cells/mL at 2 mL/well, with three replicates per group. After cell adhesion, the model and experimental groups were treated with 2 mL of AAPH solution at a final concentration of 6 mmol/L, whereas the control group received an equivalent volume of the medium. After 24 h of incubation, experimental groups were treated with 200 μL of peptide […] at a final concentration of 250, 500, and 1000 μg/mL. The control and model groups received an equivalent volume of the medium. After 24 h incubation, the cells were collected, and the protein content was measured using the BCA protein assay kit. The activities of SOD, CAT, and GSH were determined using the respective assay kits.

HUVECs damaged by AAPH [5] = test: SOD activity in AAPH-damaged HUVECs; conditions: 250, 500, and 1000 μg/mL, 24 h after 6 mmol/L AAPH 24 h; p < 0.05; three replicates
Procedure: as §1

HUVECs damaged by AAPH [6] = test: GSH content in AAPH-damaged HUVECs; conditions: 250, 500, and 1000 μg/mL, 24 h after 6 mmol/L AAPH 24 h; p < 0.05; three replicates
Procedure: as §1

HUVECs damaged by AAPH [7] = test: ROS levels in AAPH-damaged HUVECs (DCFH-DA); conditions: 24 h after 6 mmol/L AAPH 24 h, DCFH-DA fluorescence
Procedure: Model and experimental groups were established, and HUVECs were seeded into 96-well plates at a density of 5 × 10^4 cells/mL at 100 μL/well, with six replicates per group. After cell adhesion, the control group received the medium, whereas the model and experimental groups were treated with 10 μL of AAPH solution to a final concentration of 6 mmol/L. After 24 h of incubation, experimental groups were treated with 10 μL of peptide […] at final concentrations of 250, 500, and 1000 μg/mL. The control and model groups received an equivalent volume of the medium. After another 24 h of incubation, ROS levels were measured according to the instructions of the ROS detection kit. Cells were washed twice with PBS, treated with 10 μL of 10 μmol/L DCFH-DA working solution, and incubated in the dark for 30 min in the CO2 incubator (37°C, 5% CO2). The cells were then washed three times with PBS, and the fluorescence intensity was measured using an Infinite […] microplate reader (Tecan, Switzerland).

[8] = concentrations of 3.9–500 μg/mL

Structure (SMILES): CC(C)[C@H](NC(=O)[C@H](CCC(=O)O)NC(=O)[C@H](CCC(=O)O)NC(=O)[C@@H](NC(=O)[C@@H](NC(=O)[C@H](CCC(=O)O)NC(=O)[C@@H]1CCCN1C(=O)[C@H](CCC(=O)O)NC(=O)[C@@H](N)Cc1ccccc1)[C@@H](C)O)[C@@H](C)O)C(=O)N[C@@H](CCCNC(=N)N)C(=O)O [FEPETTEEVR] (H-FEPETTEEVR-OH; N-terminus and C-terminus assumed)
- toxicity to HUVECs (in words) (HUVECs [1]): no toxicity
- effect on HUVEC growth (in words) (HUVECs [1]): promoted cell growth

Structure (SMILES): CC(C)(N=NC(C)(C)C(=N)N)C(=N)N.Cl.Cl [AAPH, 2,2′‐azobis(2‐methylpropionamidine) dihydrochloride]
- cell survival rate (HUVECs [2]; AAPH 4 mmol/L): 92.64% ± 0.06%
- cell survival rate (HUVECs [2]; AAPH 6 mmol/L): 87.35% ± 0.05%
- cell survival rate (HUVECs [2]; AAPH 8 mmol/L): 78.64% ± 0.03%
- cell survival rate (HUVECs [2]; AAPH 10 mmol/L): 43.10% ± 0.04%
- cell survival rate (HUVECs [2]; AAPH 12 mmol/L): 5.07% ± 0.01%
- cell viability (HUVECs [2]; AAPH 0.25, 0.5, 1, and 2 mmol/L, significantly higher than control (p < 0.01)): > 100%

Structure (SMILES): CSCC[C@H](NC(=O)[C@H](Cc1ccc(O)cc1)NC(=O)CNC(=O)[C@H](CCSC)NC(=O)[C@@H](NC(=O)[C@H](CO)NC(=O)[C@@H](NC(=O)[C@@H](N)CC(=O)O)[C@@H](C)O)[C@@H](C)O)C(=O)N[C@@H](C)C(=O)N[C@@H](C)C(=O)N[C@@H](CCCCN)C(=O)O [DTSTMGYMAAK] (H-DTSTMGYMAAK-OH; N-terminus and C-terminus assumed)
- cell viability compared with the model group (in words) (HUVECs damaged by AAPH [3]): did not show significant differences
- toxicity to HUVECs (in words) (HUVECs [1]): no toxicity

Structure (SMILES): NCCCC[C@H](NC(=O)[C@H](CC(=O)O)NC(=O)[C@H](CCC(=O)O)NC(=O)[C@H](CC(=O)O)NC(=O)[C@H](CCC(=O)O)NC(=O)[C@H](CC(=O)O)NC(=O)[C@H](CCC(=O)O)NC(=O)[C@@H](N)CC(=O)O)C(=O)O [DEDEDEDK] (H-DEDEDEDK-OH; N-terminus and C-terminus assumed)
- CAT activity in the cells vs model group (in words) (HUVECs damaged by AAPH [4]): increased significantly
- SOD activity in the cells vs model group (in words) (HUVECs damaged by AAPH [5]): increased significantly
- effect on HUVEC growth (in words) (HUVECs [1]): promoted cell growth
- GSH content in the cells vs model group (in words) (HUVECs damaged by AAPH [6]): significantly increased
- ROS content compared with the model group (in words) (HUVECs damaged by AAPH [7]; DEDEDEDK 1000 μg/mL, p < 0.05): significantly reduced
- ROS levels compared with the model group (in words) (HUVECs damaged by AAPH [7]; DEDEDEDK 250 and 500 μg/mL, p > 0.05): no significant change

Structure (SMILES): NCC(=O)N[C@@H](CCC(=O)O)C(=O)N[C@@H](Cc1ccc(O)cc1)C(=O)N[C@@H](CCC(N)=O)C(=O)O [GEYQ] (H-GEYQ-OH; N-terminus and C-terminus assumed)
- effect on HUVEC viability (in words) (HUVECs [1]; 3.9–62.5 μg/mL): clear inhibitory effect

Structure (SMILES): CC[C@H](C)[C@H](NC(=O)[C@H](Cc1c[nH]cn1)NC(=O)CNC(=O)[C@@H](N)Cc1ccccc1)C(=O)N[C@@H](CO)C(=O)N[C@H](C(=O)O)C(C)C [FGHISV] (H-FGHISV-OH; N-terminus and C-terminus assumed)
- cell viability compared with the model group (in words) (HUVECs damaged by AAPH [3]): did not show significant differences
- cytotoxicity to HUVECs (in words) (HUVECs [1]; [8]): no cytotoxicity

Structure (SMILES): C[C@H](NC(=O)[C@@H](N)CC(=O)O)C(=O)N[C@@H](CO)C(=O)N[C@@H](CS)C(=O)N[C@@H](CCCCN)C(=O)O [DASCK] (H-DASCK-OH; N-terminus and C-terminus assumed)
- toxicity to HUVECs (in words) (HUVECs [1]): no toxicity
- effect on HUVEC growth (in words) (HUVECs [1]): promoted cell growth

Structure (SMILES): CC[C@H](C)[C@H](NC(=O)[C@H](CCC(=O)O)NC(=O)[C@H](CCSC)NC(=O)[C@@H]1CCCN1C(=O)[C@@H](NC(=O)[C@H](Cc1c[nH]cn1)NC(=O)[C@H](CC(N)=O)NC(=O)[C@H](CO)NC(=O)[C@H](CCC(N)=O)NC(=O)[C@H](CO)NC(=O)[C@@H](NC(=O)[C@H](Cc1c[nH]c2ccccc12)NC(=O)[C@@H](NC(=O)[C@@H](N)Cc1ccccc1)[C@@H](C)O)C(C)C)[C@@H](C)CC)C(=O)N[C@@H](CCC(=O)O)C(=O)N[C@@H](CCC(=O)O)C(=O)N[C@@H](CC(=O)O)C(=O)N[C@@H](CO)C(=O)N[C@@H](C)C(=O)N[C@@H](CCCCN)C(=O)N1CCC[C@H]1C(=O)N[C@@H](Cc1c[nH]c2ccccc12)C(=O)N[C@@H](CC(C)C)C(=O)O (H-FTWVSQSNHIPMEIEEDSAKPWL-OH; N-terminus and C-terminus assumed)
- effect on HUVEC viability (in words) (HUVECs [1]; 31.25–1000 μg/mL): clear inhibitory effect

Structure (SMILES): CC[C@H](C)[C@H](NC(=O)[C@H](CC(=O)O)NC(=O)[C@@H](N)CC(=O)O)C(=O)N[C@@H](CCSC)C(=O)N[C@@H](CCC(=O)O)C(=O)N[C@@H](CC(=O)O)C(=O)N[C@@H](CCCCN)C(=O)N[C@@H](CC(=O)O)C(=O)N[C@@H](CC(N)=O)C(=O)N[C@@H](Cc1ccccc1)C(=O)O [DDIMEDKDNF] (H-DDIMEDKDNF-OH; N-terminus and C-terminus assumed)
- cytotoxicity to HUVECs (in words) (HUVECs [1]; 3.9–250 μg/mL): nontoxic

Structure (SMILES): CC(C)[C@H](NC(=O)[C@H](C)N)C(=O)N[C@H](C(=O)N[C@@H](CCC(=O)O)C(=O)N[C@@H](CO)C(=O)N[C@@H](CCCCN)C(=O)O)C(C)C [AVVESK] (H-AVVESK-OH; N-terminus and C-terminus assumed)
- cytotoxicity to HUVECs (in words) (HUVECs [1]; [8]): no cytotoxicity

Structure (SMILES): N[C@@H](CCC(=O)O)C(=O)N[C@@H](CC(=O)O)C(=O)N[C@@H](CCC(=O)O)C(=O)O [EDE] (H-Glu-Asp-Glu-OH; N-terminus and C-terminus assumed)
- cell viability compared with the model group (in words) (HUVECs damaged by AAPH [3]): did not show significant differences
- effect on HUVEC growth (in words) (HUVECs [1]): promoted cell growth
